Data published in US20160318844A1, “PROSTACYCLIN COMPOUNDS, COMPOSITIONS AND METHODS OF USE THEREOF” (Insmed Incorporated, priority 2015, published 2016).
“Also recorded” adds a separate entry of the source. Like-named read-outs stand apart in the source and are kept apart here.

Assays:
[1] = Particle size characterization of treprostinil compositions (QELS); assay type: physicochemical; settings: compositions of Table 3, FIG. 2
Experimental: The compositions in Table 3 were subject to particle size characterization.
All particle size measurements were performed using a Wyatt Technology Mobius™ Zeta Potential/Particle Sizing Instrument in Quasi-elastic light scattering (QELS) mode. Composition aliquots were diluted 10-fold in pre-filtered (0.02 μm pore filter) ultrapure of deionized H2O. Light scattering data was collected and converted into particle size and size distribution using Dynamics® v. 7.2.4 instrument software. Reported average particle size diameter is based on the cumulants model, which mathematically fits particle diffusion constants (determined by the raw scattering intensities of particles in a suspension) to obtain the particle size mean and a distribution of particle sizes around the mean diameter.
Particle uniformity was determined using the software-calculated polydispersity (% PD). Polydispersity is defined as the standard deviation of the particle size distribution from the mean particle size value. % PD normalizes the polydispersity to the mean diameter by dividing by the mean size and multiplying by 100. […]
Dynamics@ polydispersity parameter represents a monodisperse population of particles if % PD ≦15. A calculated % PD ≧57% represents a polydisperse population of particles.

EP2 prostanoid receptor = biological target: T1, EP2 prostanoid receptor (Homo sapiens, UniProt P43116); assay: GloSensor cAMP assay in CHO-K1 cells co-transfected with the EP2 receptor; assay type: cell-based; settings: for change of potency with incubation time: cAMP dose response curves, 0.5 hr to 8 hr; for ranking of activity: kinetic profile at 10 μM and 5 μM
T1 construct: host or cells: CHO-K1
T1 sequence (P43116 whole entry): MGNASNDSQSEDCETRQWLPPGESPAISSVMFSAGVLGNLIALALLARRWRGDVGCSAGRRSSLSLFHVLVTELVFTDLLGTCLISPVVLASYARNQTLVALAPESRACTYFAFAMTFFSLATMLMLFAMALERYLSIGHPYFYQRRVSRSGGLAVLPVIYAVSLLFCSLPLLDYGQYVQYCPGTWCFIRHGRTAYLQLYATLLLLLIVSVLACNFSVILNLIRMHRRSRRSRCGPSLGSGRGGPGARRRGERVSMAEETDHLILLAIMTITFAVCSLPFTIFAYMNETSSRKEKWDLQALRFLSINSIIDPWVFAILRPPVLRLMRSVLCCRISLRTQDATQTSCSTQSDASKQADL
Description: cAMP is a second messenger involved in signal transduction of G-protein coupled receptors (GPCRs) acting through Gα-s and Gα-i proteins. Because the treprostinil receptor is a GPCR, the assay provides an indication of whether the respective prostacyclin compound (or metabolite thereof) binds its receptor and activates the GPCR cell signaling cascade. The GloSensorTM assay harnesses a genetically modified form of firefly luciferase into which a cAMP-binding protein moiety has been inserted. Upon binding of cAMP, a conformational change is induced leading to increased light output. The EP2 prostanoid receptor was cotransfected with the GioSensorm plasmid (Promega) into CHO-K cells as follows. CHO-K cells were harvested when the monoloayer was at 50-90% confluence. First, cells were washed with 5 mL PBS. […] The media was aspirated, and the cell pellet was resuspended in 10 mL of growth media. Cell number was determined using a hemacytometer. […] For small scale transfections of up to 20 wells, the pGLoSensor-22F cAMP plasmid (Promega, Cat #: E2301) (2 apg): […] Cat #: […] P2271) ratio was diluted to a final concentration of 12.6 ng/μL (total plasmid) in Opti-MEM I reduced-serum medium (Life Technologies, Cat #: 1985062). Next, 6 μL of FuGENE HD transfection reagent (Promega, Cat #: E2311) was added to 160 μL of diluted plasmid and mixed carefully by gentle pipetting. The complex was incubated at room temperature for 0 to 10 minutes, and then 8 μL of the complex was added per well of a 96 well white assay plate (Costar, Cat #: 3917) and gently mixed without disturbing the cell monolayer. […] Following incubation, cells were treated and analyzed. For larger scale transfections, the aforementioned steps were scaled up accordingly, and cells were frozen following the last incubation. In order to prepare frozen transfected CHO-K cells, the media was aspirated from culture flasks and cells were rinsed with 5 mL PBS. […] Cell number was determined using a hemacytometer. The media was aspirated, and the cell pellet was resuspended in freezing media (Millipore, cat #: S-002-SF) at 2.5×10^4 cells/vial. Transfected cells were incubated overnight at -80° C. before transfer to liquid nitrogen for long term storage. […] SH30071.03)). […] In preparation for cAMP measurement, the cells were equilibrated with the GloSensor cAMP reagent prior to treatment. For equilibration, the medium was carefully removed from the individual well. Next, 100 μL of equilibration medium ([…] of Glosensor Reagent stock solution (Promega, Cat #: E291), 10% FBS (Hydone, Cat #: SH30071.03) and 88% CO2 independent medium (Life Technologies, Cat #: 18045088)) was added per well of the 96-well plate, and added to the side of each well. The plate was then incubated for 2 hours at room temperature. A first pre-read measurement was taken using a microplate reader (MicroLumat Plus). Plates were incubated for an additional 10 minutes at room temperature, followed by a second pre-read measurement. […] Following treatment, each plate was read every 5 minutes for the duration of the assay using a microplate reader (MicroLumat Plus). In order to determine the fold change in cAMP relative to the control, the transfection efficiency was first determined by dividing the second pre-read measurement by the average of the corresponding pre-read measurements. Next, the normalized relative light units (RLUs) of the samples were determined by dividing the plate read measurement by the transfection efficiency. The fold change in cAMP relative to the control was then determined by dividing the normalized RLU of the samples by the normalized RLU of the control. The cAMP assay was validated using free treprostinil. […] Luminescence was then measured at room temperature. […] Nebulizer Aeroneb Pro (Aerogen) was used to nebulize treprostinil derivative compositions. Desired volume of the formulation (usually 3 mL) was loaded to the mesh head of the nebulizer. […]

[2] = rat, in vivo
Experimental: Nebulized treprostinil (TRE) solution and treprostinil alkyl ester formulations were administered (at 15 nmol/kg, or […] TRE equivalent) to anaesthetised-ventilated rats (6-hour studies) or to conscious rats by nose-only inhalation (24-hour studies). Blood and lung samples were collected at specified time points. TRE and treprostinil alkyl ester concentrations in blood plasma and lung tissue were measured by HPLC/MS/MS analysis.
Male Sprague Dawley rats were placed in restraining tubes and exposed to nebulised drugs via the Jaeger-NYU Nose-Only Directed-Flow Inhalation Exposure System (CH Technologies, Westwood, N.J.) (FIG. 31). Test articles (6 mL at specific concentration) were nebulised using the Aeroneb nebuliser to deliver a predetermined estimated pulmonary dose. Blood and lung tissue samples were taken at selected times after nebulization of the drugs over a 24-hour period.

[3] = Tolerability and pharmacokinetics in rats, inhaled C16-TR (T748) for 14-consecutive days; assay type: in vivo, rat; settings: inhaled 0.6-18 μg/kg, formulation T748
Experimental: Body weights were recorded daily and organ weights (lungs, heart, liver) were measured 24 hr. after the last drug dose.

[4] = Treprostinil pharmacokinetics in anaesthetised, ventilated rats after nebulized dosing; assay type: in vivo, rat
Experimental: Male Sprague Dawley rats were anaesthetised and prepared with endotracheal tube for ventilation. The right femoral vein was cannulated to facilitate blood collections. Terminal lung samples were taken for analysis only 6 hours after dosing. […] Systemic blood pressure (mSAP), heart rate (HR), and arterial oxygen saturation (Sa02). Physiologic parameters were measured during normoxia (fraction of inspired oxygen [FrO2]=0.21, SaO2≈90%) and for 2 to 3 hours during hypoxia (FrO2=0.10, SaO2≈50%).

in vivo = settings: dog
Experimental: Twelve beagle dogs of either sex were randomly assigned to different inhaled doses of treprostinil in PBS or the compound of Formula (A) wherein R2=
Formulations were nebulized with an Aeroneb nebulizer (MMAD: 2.5-4 μm) delivered into a 500 m1 expansion chamber. Formulations were nebulized for 2 min at ventilator settings of 90 ml/breath, 15 breaths/min (delivered volume=2.7 L) and collected on a filter. Drug amount (μg) on the filter was measured by HPLC to calculate the concentration of drug delivered through the ventilator circuit (μg/L).
(§1) Dosimetry was performed in propofol-anesthetized dogs in which nebulized drugs were introduced into a mixing chamber interposed on the inspiratory limb of a canine respirator. Technical trials were performed before each experiment to measure the concentration of drug (μg/L) delivered for each breath. The inhaled drug dose (μg/kg) was calculated using the formula: Inhaled Drug Dose (μg/kg)=Drug Conc. (μg/L)×Minute Ventilation (L/min.)×Time (min.)/Body Weight (kg). […] Clinical signs were monitored over this 72 hr. period.
(§2) Dosimetry was performed in propofol-anesthetized, artificially ventilated dogs in which nebulized drugs were introduced into a mixing chamber interposed on the inspiratory limb of the respirator. Technical trials were performed before each experiment measuring the concentration of drug (μg/L) per breath, minute ventilation and time required to achieve a targeted pulmonary dose. […] Clinical signs (cough, rapid shallow breathing, emesis and pale gums) were also monitored.

beagle dogs = assay: Clinical signs in dogs after inhalation
Experimental: as §1, §2

guinea pigs = assay: Cough reflex in guinea pigs; assay type: in vivo, guinea pig
Experimental: Aerosols were generated with an Ultra-Neb Pro nebulizer (nebulizer output 0.36 mL/min.) that was mixed with inspired air delivered at a rate of 2 L/min. The PBS or drugs were delivered for 10 min. and the number of coughs recorded during and for 20 min. after the delivery. Coughs were detected by visual observations, plethysmograph recordings and cough sounds.

[5] = male, Sprague Dawley, rat, inhaled or intranasal, 6 ug/kg, plasma treprostinil, nebulized, estimated pulmonary dose of 6 μg/kg

## CCCCCCCCCCCCCCOC(=O)COc1cccc2c1C[C@H]1C[C@@H](O)[C@H](CC[C@@H](O)CCCCC)[C@H]1C2 [Compound C14-TR, tetradecyl-treprostinil]
[1]
  polydispersity (% PD): around 15 % PD
EP2 prostanoid receptor
  change of potency with incubation time: increases with incubation time
  ranking of activity: C12-TR>C14-TR>5-nonanyl-TR>C16-TR
[2]
  immediately post dose (IPD): 0.0104 mg/kg

## CCCCCCCCCCCCCCCCOC(=O)COc1cccc2c1C[C@H]1C[C@@H](O)[C@H](CC[C@@H](O)CCCCC)[C@H]1C2 [Compound C16-TR, hexadecyl-treprostinil]
[3]
  tolerability, body weights and organ weights: no tolerability issues or significant changes (relative to PBS) in body weights and organ weights; also recorded: well tolerated
EP2 prostanoid receptor
  change of potency with incubation time: increases with incubation time
  ranking of activity: C12-TR>C14-TR>5-nonanyl-TR>C16-TR

## CCCCC[C@H](O)CC[C@@H]1[C@H]2Cc3cccc(OCC(=O)O)c3C[C@H]2C[C@H]1O [Treprostinil, (1R,2R,3aS,9aS)-[[2,3,3a,4,9,9a-hexahydro-2-hydroxy-1-[(3S)-3-hydroxyoctyl]-1H-benz[f]inden-5-yl]oxy]acetic acid]
[4]
  time by which measurable levels of TRE were no longer seen in the lungs: < 6 h
  time up to which measurable levels of TRE were seen in blood plasma: ≤ 4 h
[4]; [5]
  AUC(0-t): 2.13 ng·h/mL
  Cmax: 3.37 ng/mL
  Tmax: 3 min
[4]; male, Sprague Dawley, rat, inhaled, 6 ug/kg, plasma treprostinil, nebulized, estimated pulmonary dose of 6 μg/kg
  Cmax: 3.5 ng/mL
In vivo; beagle, 18 ug/kg
  Cmax: 5.9 ± 0.6 ng/mL
In vivo; both, beagle
  treprostinil plasma Cmax, fold higher than with T623 at similar inhaled doses: 15-20 fold
In vivo; both, beagle, inhaled or intranasal, 5 ug/kg
  Cmax: 2.7 ng/mL
In vivo; both, beagle, inhaled or intranasal, 16 ug/kg
  Cmax: 5.9 ng/mL
In vivo
  period over which plasma levels of treprostinil were sustained: disappeared within a few hours
Beagle dogs; T623 inhaled doses as high as 46 μg/kg, treprostinil 5 and 16 μg/kg
  respiratory irritation (coughing, rapid shallow breathing): present during the recovery period
Beagle dogs; targeted dose of 18 μg/kg
  adverse clinical signs: Adverse clinical signs were seen
EP2 prostanoid receptor; 10 μM, FIG. 3A
  cAMP levels sustained for: not exhibited
EP2 prostanoid receptor; 4.5 hr incubation time, read-out: EC50 (μM) 4.5 hr
  EC50: 0.2 µM
EP2 prostanoid receptor; 6.0 hr incubation time, read-out: EC50 (μM) 6.0 hr
  EC50: 0.29 µM
EP2 prostanoid receptor; 8.0 hr incubation time, read-out: EC50 (μM) 8.0 hr
  EC50: 0.44 µM
EP2 prostanoid receptor; EC50 (μM) 0.5 hr, 0.5 hr incubation time
  EC50: 0.18 µM
EP2 prostanoid receptor; EC50 (μM) 1.0 hr, 1.0 hr incubation time
  EC50: 0.28 µM
EP2 prostanoid receptor; EC50 (μM) 2.0 hr, 2.0 hr incubation time
  EC50: 0.15 µM
EP2 prostanoid receptor; EC50 (μM) 3.0 hr, 3.0 hr incubation time
  EC50: 0.16 µM
EP2 prostanoid receptor; EC50 (μM) 4.0 hr, 4.0 hr incubation time
  EC50: 0.19 µM
EP2 prostanoid receptor; EC50 (μM) 5.0 hr, 5.0 hr incubation time
  EC50: 0.26 µM
EP2 prostanoid receptor; EC50 (μM) 7.0 hr, 7.0 hr incubation time
  EC50: 0.46 µM
EP2 prostanoid receptor; Table 4, compositions of FIGS. 3A-3C (10 μM, 1 μM, 0.1 μM), 8 hours time course
  Max cAMP level (Fold): ~16 Fold
EP2 prostanoid receptor; Table 5, 5 μM, FIG. 4, 8 hours time course
  Max cAMP level (Fold): ~14 Fold
EP2 prostanoid receptor; Table 6, effect of nebulization, head (5 μM), FIG. 6
  Max cAMP level (Fold): ~15 Fold
EP2 prostanoid receptor
  change of potency with incubation time: potency decreases with increasing incubation time
Guinea pigs; aerosol 1-300 μg/ml
  exposure concentration that consistently evokes cough: ≥ 30 µg/mL
Guinea pigs; nebulized concentration of 30 μg/mL
  cough bouts: 1-4
Guinea pigs; nebulized concentration of 30 μg/mL, 10 min. exposure
  guinea pigs with cough: 7 of 7
Guinea pigs; nebulized concentration of 30 μg/mL, average
  total number of coughs: 36±9 coughs

## treprostinil decyl ester [Compound C10-TR]
[1]
  polydispersity (% PD): around 15 % PD
EP2 prostanoid receptor; 5 μM, FIG. 4 and FIG. 5
  duration of cAMP levels: sustained significantly longer than free treprostinil
EP2 prostanoid receptor; 10 μM, FIG. 3A
  cAMP levels compared with free treprostinil: equivalent to free treprostinil
  cAMP levels sustained for: at least 6 hours
EP2 prostanoid receptor; compositions, 5 μM, FIG. 4
  cAMP response compared with free treprostinil: greater than or equivalent to the response induced by free treprostinil
EP2 prostanoid receptor; unformulated compounds, 5 μM, FIG. 5
  cAMP response levels: equivalent to free treprostinil
